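Compound exposure: 48 hours, 5 concentrations, 96-well plates. The concentration for 50% growth inhibition is given as GI50.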 Active and inactive are the calls of the source. Rule as the data show it: active = GI50 up to about 1.1 µM and inactive = higher.
Key:
Assay in all cases: NCI tumour cell line growth inhibition, 48 h
NCI-H226 = test system: NCI-H226
NCI-H460 = test system: NCI-H460
COLO 205 = test system: COLO 205
NCI-H522 = test system: NCI-H522
A498 = test system: A498
EKVX = test system: EKVX
RPMI-8226 = test system: RPMI-8226
U-251 = test system: U-251
SK-OV-3 = test system: SK-OV-3
OVCAR-4 = test system: OVCAR-4
786-0 = test system: 786-0
HL-60 = test system: HL-60
HOP-62 = test system: HOP-62
SK-MEL-5 = test system: SK-MEL-5
HCC 2998 = test system: HCC 2998
PC-3 = test system: PC-3
DU-145 = test system: DU-145
Hs-578T = test system: Hs-578T

Measured: GI50

CCC(Oc1ccc(OC)c2ccccc(=O)c12)C(=O)O (centres undefined)
inactive: NCI-H226 > 100 µM | NCI-H460 > 100 µM | COLO 205 > 100 µM | NCI-H522 > 100 µM | A498 > 100 µM | EKVX > 100 µM | RPMI-8226 > 100 µM | U-251 > 100 µM | SK-OV-3 > 100 µM | OVCAR-4 > 100 µM | 786-0 > 100 µM | HL-60 > 100 µM | HOP-62 > 100 µM | SK-MEL-5 > 100 µM | HCC 2998 > 100 µM

CCC(C)C1=C(OC(C)=O)[N+]2([O-])Oc3ccc(-c4c(OC(C)=O)c(OC(C)=O)c(-c5ccc(OC(C)=O)cc5)c(OC(C)=O)c4OC(C)=O)cc3OC2(C(C)CC)C(=O)N1OC(C)=O (centres undefined)
inactive: NCI-H226 21.1 µM | NCI-H460 18.9 µM | COLO 205 18.8 µM | NCI-H522 8.53 µM | A498 > 50 µM | EKVX 16.1 µM | RPMI-8226 10.3 µM | U-251 23.8 µM | SK-OV-3 43 µM | OVCAR-4 16.5 µM | 786-0 10.5 µM | HL-60 7.71 µM | PC-3 22.5 µM | SK-MEL-5 11 µM | DU-145 19.3 µM

CC1=C2C(=O)c3ccccc3C(=O)[C@H]2C[C@@H](N2CCCC2=O)O1
inactive: NCI-H460 61.1 µM | Hs-578T 94.8 µM | COLO 205 79.1 µM | NCI-H522 79.8 µM | A498 54.8 µM | EKVX 76.4 µM | RPMI-8226 21.7 µM | U-251 28 µM | SK-OV-3 > 100 µM | OVCAR-4 20.2 µM | 786-0 25.2 µM | HL-60 40.8 µM | HOP-62 39.6 µM | PC-3 > 100 µM | SK-MEL-5 17.1 µM | HCC 2998 > 100 µM | DU-145 26.9 µM

CCN(CC)CCN1C(=O)CC2[C@@H]3CCc4cc(OC)ccc4C3CC[C@]2(C)C1=O (some centres undefined)
inactive: NCI-H460 37.6 µM | COLO 205 19.5 µM | NCI-H522 22.3 µM | A498 36 µM | RPMI-8226 21.7 µM | U-251 31.6 µM | SK-OV-3 > 100 µM | OVCAR-4 > 100 µM | 786-0 17.3 µM | HL-60 16.8 µM | HOP-62 25.2 µM

O=C(O)c1cc(/C=C/c2ccc(O)c(O)c2)ccc1O
inactive: NCI-H226 > 100 µM | NCI-H460 > 100 µM | Hs-578T > 100 µM | COLO 205 > 100 µM | NCI-H522 > 100 µM | EKVX > 100 µM | RPMI-8226 31 µM | U-251 > 100 µM | SK-OV-3 > 100 µM | OVCAR-4 > 100 µM | 786-0 > 100 µM | HL-60 30.7 µM | HOP-62 > 100 µM | PC-3 > 100 µM | SK-MEL-5 > 100 µM | HCC 2998 > 100 µM | DU-145 > 100 µM

COc1ccccc1N1C(=O)/C(=C/c2ccc(N(CCC#N)CCC#N)cc2C)N=C1c1cc([N+](=O)[O-])ccc1Cl
inactive: NCI-H226 > 100 µM | NCI-H460 > 100 µM | COLO 205 > 100 µM | NCI-H522 > 100 µM | A498 > 100 µM | EKVX > 100 µM | RPMI-8226 > 100 µM | U-251 > 100 µM | SK-OV-3 > 100 µM | OVCAR-4 20.6 µM | 786-0 > 100 µM | HL-60 > 100 µM | HOP-62 > 100 µM | SK-MEL-5 > 100 µM | HCC 2998 > 100 µM

O=C1CSC2=NC3=C(CSC/C3=C\c3ccc(Cl)cc3)C(c3ccc(Cl)cc3)N12 (centres undefined)
inactive: NCI-H460 28.5 µM | COLO 205 33.1 µM | NCI-H522 12.5 µM | EKVX 27.4 µM | RPMI-8226 17.5 µM | U-251 > 10 µM | SK-OV-3 52.7 µM | OVCAR-4 4.46 µM | 786-0 > 10 µM | HL-60 22.2 µM | PC-3 5.22 µM | SK-MEL-5 14.4 µM | HCC 2998 25.6 µM | DU-145 28.4 µM

Reference: ChEMBL document CHEMBL1201862, “PubChem BioAssay data set” (2004)
